Experimental data reported in article PMC12566046, “Arylpiperazinyl-Benzocycloheptapyrrole-Carboxamides Endowed with Dual Anticancer and Antiviral Activities” (Molecules, 2025).

Experiments:
[1] = test system: IAV strain A/PR/8/34 (H1N1); details: preliminary screening
[2] = test system: IAV strain A/PR/8/34 (H1N1); assay: microbe, parasite or virus in culture; details: Influenza A virus, MDCK, read-out: IAV/MDCK EC50
[3] = test system: HCT-116 (colon cancer cell line); assay: NCI-60 single-dose assay; assay type: cell-based, human; details: Homo sapiens, HCT-116, read-out: growth inhibition (GI%) and cytotoxicity (negative values)
Method in brief: (§1)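 Cytotoxicity was screened at a single dose across the NCI-60 human tumour cell panel, which covers leukemia, melanoma and lung, colon, CNS, ovarian, renal, prostate and breast cancers.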

[4] = test system: T-47D (breast cancer cell line); assay: NCI-60 single-dose assay; assay type: cell-based, human; details: Homo sapiens, T47D, read-out: growth inhibition (GI%) and cytotoxicity (negative values)
Method in brief: as §1

SR (leukemia cell line) = assay: NCI-60 single-dose assay; assay type: cell-based, human; details: Homo sapiens, read-out: growth inhibition (GI%) and cytotoxicity (negative values)
Method in brief: as §1

[5] = test system: BT-549 (breast cancer cell line); assay: NCI-60 single-dose assay; assay type: cell-based, human; details: Homo sapiens, BT-549, read-out: growth inhibition (GI%) and cytotoxicity (negative values)
Method in brief: as §1

[6] = test system: HL-60(TB) (leukemia cell line); assay: NCI-60 single-dose assay; assay type: cell-based, human; details: human
[7] = test system: COLO 205 (colon cancer cell line); assay: NCI-60 single-dose assay; assay type: cell-based, human; details: human
Method in brief: as §1

[8] = test system: SW-620 (colon cancer cell line); assay: NCI-60 single-dose assay; assay type: cell-based, human; details: human
Method in brief: as §1

[9] = test system: UACC-62 (melanoma cell line); assay: NCI-60 single-dose assay; assay type: cell-based, human; details: human
Method in brief: as §1

[10] = test system: HCT-15 (colon cancer cell line); assay: NCI-60 single-dose assay; assay type: cell-based, human; details: Homo sapiens, HCT-15, read-out: growth inhibition (GI%) and cytotoxicity (negative values)
Method in brief: as §1

[11] = test system: MDA-MB-435 (melanoma cell line); assay: NCI-60 single-dose assay; assay type: cell-based, human; details: human
Method in brief: as §1

[12] = test system: KM12 (colon cancer cell line); assay: NCI-60 single-dose assay; assay type: cell-based, human; details: Homo sapiens, KM12, read-out: growth inhibition (GI%) and cytotoxicity (negative values)
Method in brief: as §1

[13] = test system: MDA-MB-468 (breast cancer cell line); assay: NCI-60 single-dose assay; assay type: cell-based, human; details: human
Method in brief: as §1

[14] = test system: HCC-2998 (colon cancer cell line); assay: NCI-60 single-dose assay; assay type: cell-based, human; details: human
Method in brief: as §1

[15] = test system: CCRF-CEM (leukemia cell line); assay: NCI-60 single-dose assay; assay type: cell-based, human; details: Homo sapiens, read-out: growth inhibition (GI%) and cytotoxicity (negative values)
Method in brief: as §1

[16] = test system: LOX IMVI (melanoma cell line); assay: NCI-60 single-dose assay; assay type: cell-based, human; details: human
Method in brief: as §1

[17] = test system: K-562 (leukemia cell line); assay: NCI-60 five-dose assay; assay type: cell-based, human; details: Homo sapiens, K562, five doses (10^−4–10^−8 M), read-out: Growth inhibition 50 (GI50)
[18] = test system: UACC-257 (melanoma cell line); assay: NCI-60 five-dose assay
[19] = test system: HCT-15 (colon cancer cell line); assay: NCI-60 five-dose assay; assay type: cell-based, human; details: Homo sapiens, five doses (10^−4–10^−8 M), read-out: Growth inhibition 50 (GI50)
[20] = test system: NCI cancer panel (all cell lines); assay: NCI-60 five-dose assay, overall mean graph midpoint (MG_MID); assay type: cell-based, human; details: Homo sapiens; MG_MID over all panels; read-out: GI50 mean graph midpoint (MG_MID)
Method: Due to these preliminary results, six compounds, 1, 5, 10, 11, 17, and 20, were selected for the five-dose screen NCI-programme against the same panel of tumour cell lines.
Next, a mean graph midpoint (MG_MD) was calculated for compounds 1, 5, 10, 11, 17, and 20 and reported as waterfall graphs GI50, TGI, and LC50 in the Supplementary Materials (Figures S69–S86). In Table 9, we reported the average GI50 for the nine-cancer panels, underlining both the activity and selectivity for compounds 1, 10, 11, and 20.

[21] = test system: HL-60(TB) (leukemia cell line); assay: NCI-60 five-dose assay; assay type: cell-based, human; details: Homo sapiens, five doses (10^−4–10^−8 M), read-out: Growth inhibition 50 (GI50)
in vitro = details: dog
[22] = test system: RPMI-8226 (leukemia cell line); assay: NCI-60 five-dose assay; assay type: cell-based, human; details: Homo sapiens, five doses (10^−4–10^−8 M), read-out: Growth inhibition 50 (GI50)
[23] = test system: SARS-CoV-2 VR PV10734 (strain Milano); assay: microbe, parasite or virus in culture; assay type: cell-based; details: Severe acute respiratory syndrome coronavirus 2; preliminary screening (50, 5, 0.5 μM), Vero TMPRSS; read-out: SARS‐CoV‐2/Vero TMPRSS EC50
NCI-60 cell line panel = assay: NCI-60 single-dose assay, whole panel; assay type: cell-based, human; details: summary over the panel
Method in brief: as §1

[24] = test system: HT29 (colon cancer cell line); assay: NCI-60 five-dose assay; assay type: cell-based, human; details: Homo sapiens, HT-29, five doses (10^−4–10^−8 M), read-out: Growth inhibition 50 (GI50)
[25] = Cytotoxicity on uninfected Huh-7 cells (WST-8, crystal violet); details: human, uninfected Huh-7 cells
[26] = test system: LOX IMVI (melanoma cell line); assay: NCI-60 five-dose assay
[27] = test system: MOLT-4 (leukemia cell line); assay: NCI-60 five-dose assay; assay type: cell-based, human; details: Homo sapiens, five doses (10^−4–10^−8 M), read-out: Growth inhibition 50 (GI50)
[28] = test system: HCC-2998 (colon cancer cell line); assay: NCI-60 five-dose assay; assay type: cell-based, human; details: Homo sapiens, five doses (10^−4–10^−8 M), read-out: Growth inhibition 50 (GI50)
[29] = test system: K-562 (leukemia cell line); assay: NCI-60 single-dose assay; assay type: cell-based; details: Homo sapiens, K562, read-out: growth inhibition (GI%) and cytotoxicity (negative values)
Method in brief: as §1

O=C(NCCCN1CCN(Cc2ccccc2)CC1)c1c(Cl)[nH]c2c1CCCc1ccccc1-2 [Compound 20, N-(3-(4-Benzylpiperazin-1-yl)propyl)-2-chloro-1,4,5,6-tetrahydrobenzo[6,7]cyclohepta[1,2-b]pyrrole-3-carboxamide]
IAV/MDCK SI [1]: 0.35
EC50 [2]: 17.7 µM
inhibition at 10 µM [3]: 95.5%
inhibition at 10 µM [4]: 78.5%
inhibition at 10 µM (SR (leukemia cell line)): 99.4%
inhibition at 10 µM [5]: 68.4%
growth inhibition (GI%) and cytotoxicity (negative values) [6]: −23.10%
growth inhibition (GI%) and cytotoxicity (negative values) [7]: −59.92%
growth inhibition (GI%) and cytotoxicity (negative values) [8]: −40.23%
growth inhibition (GI%) and cytotoxicity (negative values) [9]: −59.22%
inhibition at 10 µM [10]: 99%
growth inhibition (GI%) and cytotoxicity (negative values) [11]: −21.33%
inhibition at 10 µM [12]: 70.3%
growth inhibition (GI%) and cytotoxicity (negative values) [13]: −29.55%
growth inhibition (GI%) and cytotoxicity (negative values) [14]: −91.84%
inhibition at 10 µM [15]: < 60%
growth inhibition (GI%) and cytotoxicity (negative values) [16]: −69.19%
GI50 [17]: 2.97 µM
GI50 ([18]; Homo sapiens, UACC-257, read-out: Growth inhibition 50 (GI50)): 1.87 µM
CC50 ([18]; Homo sapiens, UACC-257, read-out: LC50 (molar concentration leading to 50% net cell death)): 26.9 µM
TGI (molar concentration giving total growth inhibition) ([18]; UACC-257): 6.61 µM
GI50 [19]: 7.78 µM
GI50 [20]: 6.76 µM
GI50 [21]: 5.06 µM
CC50 (in vitro): 6.12 µM
GI50 [22]: 3.69 µM
EC50 [23]: 17.7 µM
growth inhibition (GI%) reached against cancer cell lines of the NCI-60 panel (NCI-60 cell line panel): > 90%
GI50 [24]: 4.03 µM
CC50 at 48 h [25]: 6.23 µM
TGI (molar concentration giving total growth inhibition) [26]: 15.85 µM
GI50 ([26]; Homo sapiens, read-out: Growth inhibition 50 (GI50)): 4.33 µM
CC50 ([26]; Homo sapiens, read-out: LC50 (molar concentration leading to 50% net cell death)): 40.7 µM
GI50 [27]: 4.78 µM
GI50 [28]: 1.77 µM
inhibition at 10 µM [29]: < 60%
